# Assay results reported in patent US20180272034A1, “USE OF CSA COMPOUNDS TO PREVENT MICROBIAL BUILD-UP OR FOULING OF MEDICAL IMPLANTS” (BRIGHAM YOUNG UNIVERSITY, priority 2017, published 2018).
# How the values were obtained:
# Type in all cases: cell-based
# Candida auris isolates = test: Antifungal MIC, CLSI M27-A3
# Description: The antifungal effectiveness of CSA-131 was tested against 100 Candida auris isolates. The C. auris isolates were from all over the world and covered known C. auris clades. The selection included isolated known to have elevated MIC values against fluconazole, the echinocandins, and/or amphotericin B.
# Testing was performed according to the standards of the Clinical and Laboratory Standards Institute reference methodology M27-A3 (as of 2017). CSA-131 was dissolved in DMSO and diluted as described in M27-A3 to give a final DMSO concentration of <1%. Dilution plates were stored at −70° C. until used and were used within one week of being produced. All results were read visually after 24 hours of incubation at the lowest drug concentration at which there was a 50% decrease in growth by visual inspection. Quality control isolates C. parapsilosis ATCC 22019 and C. krusei ATCC 6258 were included on each day of testing although there are no standard QC values for these isolates against this compound. The MIC values for ATCC 22019 and ATCC 6258 remained within a tight range of 1-2 dilutions over the course of the study.
# [1] = system: All (74) clinical isolates; test: Broth microdilution MIC, HABP/VABP clinical isolates
# Description: (§1) CSA-131 was tested in vitro against a set of clinical isolates representing bacterial species commonly associated with hospital-acquired bacterial pneumonia (HABP) or ventilator-associated bacterial pneumonia (VABP). Antimicrobial susceptibility testing for 74 clinical isolates was performed. Broth microdilution using frozen-form MIC panels consisted of three media types: cation-adjusted Mueller-Hinton broth (CA-HMB), CA-HMB supplemented with 2.5-5% lysed horse blood for S. pneumoniae and Haemophilus test media (HTM) for Haemophilus spp.
# Staphylococcus aureus = test: as above; details: Staphylococcus aureus (10)
# Description: as §1
# Streptococcus Pneumoniae = test: as above; details: Streptococcus Pneumoniae (10)
# Description: as §1
# Enterobacteriaceae = test: as above; details: Enterobacteriaceae (22)
# Description: as §1
# Haemophilus spp. = test: as above
# Description: as §1
# [2] = 100 C. auris isolates, 50% decrease in growth, 24 hours
# [3] = fluconazole Resistant isolates, 69
# [4] = fluconazole Susceptible isolates, 30
# [5] = isolates with elevated echinocandin MICs, 7
compound,measurement,setting,value
CCCCCCCCCCCCNCCC[C@@H](C)[C@H]1CC[C@H]2[C@@H]3[C@H](OCCCN)C[C@@H]4C[C@H](OCCCN)CC[C@]4(C)[C@H]3C[C@H](OCCCN)[C@]12C.Cl.Cl.Cl.Cl [CSA-131],No. of Isolates at MIC 0.016,Candida auris isolates; 100 C. auris isolates,0
same,No. of Isolates at MIC 0.03,Candida auris isolates; 100 C. auris isolates,0
same,No. of Isolates at MIC 0.0625,Candida auris isolates; 100 C. auris isolates,0
same,No. of Isolates at MIC 0.125,Candida auris isolates; 100 C. auris isolates,0
same,No. of Isolates at MIC 0.25,Candida auris isolates; 100 C. auris isolates,0
same,No. of Isolates at MIC 0.5,Candida auris isolates; 100 C. auris isolates,39
same,No. of Isolates at MIC 1,Candida auris isolates; 100 C. auris isolates,61
same,No. of Isolates at MIC 2,Candida auris isolates; 100 C. auris isolates,0
same,No. of Isolates at MIC <0.016,Candida auris isolates; 100 C. auris isolates,0
same,No. of Isolates at MIC >2,Candida auris isolates; 100 C. auris isolates,0
same,MIC50,Candida auris isolates; [2],1 µg/mL
same,MIC90,Candida auris isolates; [2],1 µg/mL
same,MIC Mode,Candida auris isolates; [2],1 µg/mL
same,MIC Range,"Candida auris isolates; 100 C. auris isolates, 50% decrease in growth, 24 hours, in µg/mL",0.5-1
same,activity against C. auris collection,"Candida auris isolates; 100 isolates, 4 clades",showed activity against all C. auris
same,MIC50,"Candida auris isolates; Clade 1, 47 isolates",1 µg/mL
same,MIC90,"Candida auris isolates; Clade 1, 47 isolates",1 µg/mL
same,MIC Mode,"Candida auris isolates; Clade 1, 47 isolates",1 µg/mL
same,MIC Range,"Candida auris isolates; Clade 1, 47 isolates",0.5 to 1 µg/mL
same,MIC50,"Candida auris isolates; Clade 2, 11 isolates",1 µg/mL
same,MIC90,"Candida auris isolates; Clade 2, 11 isolates",1 µg/mL
same,MIC Mode,"Candida auris isolates; Clade 2, 11 isolates",1 µg/mL
same,MIC Range,"Candida auris isolates; Clade 2, 11 isolates",0.5 to 1 µg/mL
same,MIC50,"Candida auris isolates; Clade 3, 39 isolates",1 µg/mL
same,MIC90,"Candida auris isolates; Clade 3, 39 isolates",1 µg/mL
same,MIC Mode,"Candida auris isolates; Clade 3, 39 isolates",1 µg/mL
same,MIC Range,"Candida auris isolates; Clade 3, 39 isolates",0.5 to 1 µg/mL
same,MIC50,"Candida auris isolates; Clade 4, 3 isolates",0.5 µg/mL
same,MIC90,"Candida auris isolates; Clade 4, 3 isolates",1 µg/mL
same,MIC Mode,"Candida auris isolates; Clade 4, 3 isolates",0.5 µg/mL
same,MIC Range,"Candida auris isolates; Clade 4, 3 isolates",0.5 to 1 µg/mL
same,MIC50,Candida auris isolates; [3],1 µg/mL
same,MIC90,Candida auris isolates; [3],1 µg/mL
same,MIC Mode,Candida auris isolates; [3],1 µg/mL
same,MIC Range,Candida auris isolates; [3],0.5 to 1 µg/mL
same,MIC50,Candida auris isolates; [4],0.5 µg/mL
same,MIC90,Candida auris isolates; [4],1 µg/mL
same,MIC Range,Candida auris isolates; [4],0.5 to 1 µg/mL
same,MIC50,Candida auris isolates; [5],1 µg/mL
same,MIC90,Candida auris isolates; [5],1 µg/mL
same,MIC Mode,Candida auris isolates; [5],1 µg/mL
same,MIC Range,"Candida auris isolates; isolates with elevated echinocandin MICs, 7, in µg/mL",0.5-1
same,MIC50,[1],4 µg/mL
same,MIC90,[1],8 µg/mL
same,No. of isolates at MIC 2 μg/ml,[1],23
same,No. of isolates at MIC 4 μg/ml,[1],40
same,No. of isolates at MIC 8 μg/ml,[1],11
same,cumulative % inhibited at 2 μg/ml,[1],31.1%
same,cumulative % inhibited at 4 μg/ml,[1],85.1%
same,cumulative % inhibited at 8 μg/ml,[1],100%
same,MIC50,Staphylococcus aureus,2 µg/mL
same,MIC90,Staphylococcus aureus,2 µg/mL
same,No. of isolates at MIC 2 μg/ml,Staphylococcus aureus,10
same,No. of isolates at MIC 4 μg/ml,Staphylococcus aureus,0
same,No. of isolates at MIC 8 μg/ml,Staphylococcus aureus,0
same,cumulative % inhibited at 2 μg/ml,Staphylococcus aureus,100%
same,cumulative % inhibited at 4 μg/ml,Staphylococcus aureus,100%
same,cumulative % inhibited at 8 μg/ml,Staphylococcus aureus,100%
same,MIC50,Streptococcus Pneumoniae,4 µg/mL
same,MIC90,Streptococcus Pneumoniae,4 µg/mL
same,No. of isolates at MIC 2 μg/ml,Streptococcus Pneumoniae,0 (0%)
same,No. of isolates at MIC 4 μg/ml,Streptococcus Pneumoniae,10
same,No. of isolates at MIC 8 μg/ml,Streptococcus Pneumoniae,0
same,cumulative % inhibited at 2 μg/ml,Streptococcus Pneumoniae,0 (0%)
same,cumulative % inhibited at 4 μg/ml,Streptococcus Pneumoniae,100%
same,cumulative % inhibited at 8 μg/ml,Streptococcus Pneumoniae,100%
same,MIC50,Enterobacteriaceae,4 µg/mL
same,MIC90,Enterobacteriaceae,4 µg/mL
same,No. of isolates at MIC 2 μg/ml,Enterobacteriaceae,4
same,No. of isolates at MIC 4 μg/ml,Enterobacteriaceae,18
same,No. of isolates at MIC 8 μg/ml,Enterobacteriaceae,0
same,cumulative % inhibited at 2 μg/ml,Enterobacteriaceae,18.2%
same,cumulative % inhibited at 4 μg/ml,Enterobacteriaceae,100%
same,cumulative % inhibited at 8 μg/ml,Enterobacteriaceae,100%
same,MIC50,Haemophilus spp.; Haemophilus spp. (10),8 µg/mL
same,MIC90,Haemophilus spp.; Haemophilus spp. (10),8 µg/mL
same,No. of isolates at MIC 4 μg/ml,Haemophilus spp.; Haemophilus spp. (10),0 (0%)
same,No. of isolates at MIC 8 μg/ml,Haemophilus spp.; Haemophilus spp. (10),10
same,cumulative % inhibited at 2 μg/ml,Haemophilus spp.; Haemophilus spp. (10),0 (0%)
same,cumulative % inhibited at 4 μg/ml,Haemophilus spp.; Haemophilus spp. (10),0 (0%)
same,cumulative % inhibited at 8 μg/ml,Haemophilus spp.; Haemophilus spp. (10),100%
same,No. of isolates at MIC 2 μg/ml,"Haemophilus spp.; Haemophilus spp. (10): 8 H. influenza, 2 H. parainfluenzae",0 (0%)
